The record followed here is PubChem BioAssay AID192 (DTP/NCI, 2004).

The structures appear in SMILES notation. Toxic doses and inconclusive results are not listed.

The test system of the test is BDF1 mice, B16 melanoma ip, median survival T/C. The test is described as follows: NCI In Vivo Anticancer Drug Screen. Data for tumor model B16 Melanoma (intraperitoneal) in B6D2F1 (BDF1) mice. Conditions: endpoint: median survival time, higher = longer survival. In short, it runs like this:
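Mice with transplantable tumors; drug vs vehicle groups; endpoint survival or tumor size; value = T/C.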

The mark [1] stands for this setting: dose: 25.0 mg/kg/injection, schedule: Q04DX003 (ip), vehicle: saline with Tween-80.
[2] abbreviates: dose: 100.0 mg/kg/injection, schedule: Q04DX003 (ip), vehicle: saline with Tween-80.
Where [3] appears, read: dose: 12.5 mg/kg/injection, schedule: Q01DX009 (ip), vehicle: Klucel (hydroxypropylcellulose) (HPC).
The mark [4] stands for this setting: dose: 25.0 mg/kg/injection, schedule: Q01DX009 (ip), vehicle: Klucel (hydroxypropylcellulose) (HPC).
Where [5] appears, read: dose: 50.0 mg/kg/injection, schedule: Q01DX009 (ip), vehicle: Klucel (hydroxypropylcellulose) (HPC).
Setting [6] is: dose: 100.0 mg/kg/injection, schedule: Q01DX009 (ip), vehicle: Klucel (hydroxypropylcellulose) (HPC).
The mark [7] stands for this setting: dose: 200.0 mg/kg/injection, schedule: Q01DX009 (ip), vehicle: Klucel (hydroxypropylcellulose) (HPC).
Setting [8] is: dose: 100.0 mg/kg/injection, schedule: Q01DX009 (ip), vehicle: saline with Tween-80.
Setting [9] is: dose: 25.0 mg/kg/injection, schedule: Q04DX003 (ip), vehicle: Klucel (hydroxypropylcellulose) (HPC).
Where [10] appears, read: dose: 50.0 mg/kg/injection, schedule: Q04DX003 (ip), vehicle: Klucel (hydroxypropylcellulose) (HPC).
The mark [11] stands for this setting: dose: 100.0 mg/kg/injection, schedule: Q04DX003 (ip), vehicle: Klucel (hydroxypropylcellulose) (HPC).
[12] abbreviates: dose: 50.0 mg/kg/injection, schedule: Q01DX009 (ip), vehicle: saline.
Setting [13] is: dose: 100.0 mg/kg/injection, schedule: Q01DX009 (ip), vehicle: saline.
The mark [14] stands for this setting: dose: 200.0 mg/kg/injection, schedule: Q01DX009 (ip), vehicle: saline.

Turning to `COC(=O)c1nc(-c2ccc3c(n2)C(=O)C(N)=C(OC)C3=O)c(N)c(-c2ccc(OC)c(OC)c2O)c1C`, the T/C was 95 % of control (dose: 0.1 mg/kg/injection, schedule: Q01DX009 (ip), vehicle: saline with Tween-80); 97 % of control (dose: 0.2 mg/kg/injection, schedule: Q01DX009 (ip), vehicle: saline with Tween-80); 105 % of control (dose: 0.4 mg/kg/injection, schedule: Q01DX009 (ip), vehicle: saline with Tween-80); 104 % of control (dose: 0.8 mg/kg/injection, schedule: Q01DX009 (ip), vehicle: saline with Tween-80).
On to `C=CCNC(=O)/C=C/C(=O)NCC=C`, for which the T/C runs as follows: under setting [1], 123 % of control; under setting [2], 121 % of control.
`CN(C)N=Nc1cn[nH]c1C(N)=O`: the T/C by setting is: under setting [3], 110 % of control; under setting [4], 111 % of control; under setting [5], 100 % of control; under setting [6], 98 % of control; under setting [7], 96 % of control.
Consider `OCCN1CCN(CCCN2c3ccccc3CCc3ccccc32)CC1`, for which the T/C runs as follows: (dose: 3.9 mg/kg/injection, schedule: Q01DX009 (ip), vehicle: saline) 95 % of control; (dose: 7.81 mg/kg/injection, schedule: Q01DX009 (ip), vehicle: saline) 93 % of control; (dose: 15.62 mg/kg/injection, schedule: Q01DX009 (ip), vehicle: saline) 100 % of control; (dose: 31.25 mg/kg/injection, schedule: Q01DX009 (ip), vehicle: saline) 97 % of control; (dose: 62.5 mg/kg/injection, schedule: Q01DX009 (ip), vehicle: saline) 95 % of control.
For the compound `COC(=O)N1C=Cc2ccccc2C1C#N` (centres undefined), the T/C is 95 % of control (dose: 50.0 mg/kg/injection, schedule: Q01DX009 (ip), vehicle: saline with Tween-80) and 87 % of control under setting [8].
`O=C1Nc2ccccc2/C1=C\c1ccccc1O`: the T/C was 106 % of control (dose: 1.56 mg/kg/injection, schedule: Q01DX009 (ip), vehicle: Klucel (hydroxypropylcellulose) (HPC)); 106 % of control (dose: 3.12 mg/kg/injection, schedule: Q01DX009 (ip), vehicle: Klucel (hydroxypropylcellulose) (HPC)); 91 % of control (dose: 6.25 mg/kg/injection, schedule: Q01DX009 (ip), vehicle: Klucel (hydroxypropylcellulose) (HPC)); 105 % of control under setting [3]; 89 % of control under setting [4].
For the compound `[O-][n+]1c(CN2CCCCC2)nc2cccc3c2c1-c1ccccc1-3`, the T/C under setting [5] was 102 % of control, the T/C under setting [6] is 119 % of control and the T/C under setting [7] was 113 % of control.
Consider `CC1(C)C=CC2=C(O1)C(=O)c1ccccc1C2=O`, for which the T/C by setting is: (dose: 25.0 mg/kg/injection, schedule: Q01DX009 (ip), vehicle: water) 104 % of control; (dose: 50.0 mg/kg/injection, schedule: Q01DX009 (ip), vehicle: water) 99 % of control; (dose: 100.0 mg/kg/injection, schedule: Q01DX009 (ip), vehicle: water) 93 % of control; (dose: 200.0 mg/kg/injection, schedule: Q01DX009 (ip), vehicle: water) 91 % of control.
`CCCCN(CCCC)C(=O)c1[nH]cnc1/N=N\N(C)C`: the T/C is 110 % of control (dose: 12.5 mg/kg/injection, schedule: Q04DX003 (ip), vehicle: saline with Tween-80); 92 % of control under setting [1]; 117 % of control (dose: 50.0 mg/kg/injection, schedule: Q04DX003 (ip), vehicle: saline with Tween-80); 93 % of control under setting [2].
For `C1CC[N-]CC1.C1CC[N-]CC1.O=C(O)C(=O)O.[Pt+2]`, the T/C is 100 % of control (dose: 6.25 mg/kg/injection, schedule: Q04DX003 (ip), vehicle: Klucel (hydroxypropylcellulose) (HPC)); 120 % of control (dose: 12.5 mg/kg/injection, schedule: Q04DX003 (ip), vehicle: Klucel (hydroxypropylcellulose) (HPC)); 119 % of control under setting [9]; 115 % of control under setting [10]; 113 % of control under setting [11].
With `COC(=O)NC1C(C)OC(OC2C/C=C(/C)C3C=CC4C(OC5CC(OC6CCC(OC7CC(O)C(OC8CCC(O)C(C)O8)C(C)O7)C(C)O6)C(OC(C)=O)C(C)O5)C(C)CC(C)C4C3(C)/C(O)=C3/C(=O)OC4(CC(C=O)=CC(O)C4/C=C\2C)C3=O)CC1(C)[N+](=O)[O-]` (centres undefined), the T/C was 159 % of control (dose: 2.5 mg/kg/injection, schedule: Q01DX009 (ip), vehicle: water); 165 % of control (dose: 5.0 mg/kg/injection, schedule: Q01DX009 (ip), vehicle: water); 157 % of control (dose: 10.0 mg/kg/injection, schedule: Q01DX009 (ip), vehicle: water).
Regarding `NNc1n[nH]c(=S)n1N`, the T/C was 88 % of control (dose: 0.78 mg/kg/injection, schedule: Q01DX009 (ip), vehicle: saline with Tween-80); 93 % of control (dose: 1.56 mg/kg/injection, schedule: Q01DX009 (ip), vehicle: saline with Tween-80); 90 % of control (dose: 3.13 mg/kg/injection, schedule: Q01DX009 (ip), vehicle: saline with Tween-80); 86 % of control (dose: 6.25 mg/kg/injection, schedule: Q01DX009 (ip), vehicle: saline with Tween-80).
On to `NC(=O)C1(N2CCCC2)CCN(Cc2ccccc2)CC1`, for which the T/C is 105 % of control under setting [9], 94 % of control under setting [10] and 100 % of control under setting [11].
`ClC[P+](c1ccccc1)(c1ccccc1)c1ccccc1`: the T/C (dose: 2.5 mg/kg/injection, schedule: Q01DX009 (ip), vehicle: saline) is 120 % of control; the T/C (dose: 5.0 mg/kg/injection, schedule: Q01DX009 (ip), vehicle: saline) was 106 % of control; the T/C (dose: 10.0 mg/kg/injection, schedule: Q01DX009 (ip), vehicle: saline) is 101 % of control.
For `CCCCCCCCCC(=O)CC`, the T/C reads like this: under setting [5], 100 % of control; under setting [6], 99 % of control; under setting [7], 100 % of control.
Consider `NC(=S)N/N=C1/c2cc(Cl)ccc2-c2c(Cl)cc(Cl)cc21`, for which the T/C was 93 % of control under setting [8]; 95 % of control (dose: 200.0 mg/kg/injection, schedule: Q01DX009 (ip), vehicle: saline with Tween-80); 93 % of control (dose: 400.0 mg/kg/injection, schedule: Q01DX009 (ip), vehicle: saline with Tween-80); 95 % of control (dose: 800.0 mg/kg/injection, schedule: Q01DX009 (ip), vehicle: saline with Tween-80).
Regarding `CC(N)C(=O)NC(C(=O)O)C(C)O` (centres undefined), the T/C by setting is: (dose: 25.0 mg/kg/injection, schedule: Q01DX009 (ip), vehicle: saline) 92 % of control; under setting [12], 100 % of control; under setting [13], 97 % of control; under setting [14], 102 % of control; (dose: 400.0 mg/kg/injection, schedule: Q01DX009 (ip), vehicle: saline) 105 % of control.
On to `Cc1ccc(N=C(c2ccc([N+](=O)[O-])cc2)c2ccc([N+](=O)[O-])cc2)cc1`, for which the T/C was 111 % of control under setting [6]; 97 % of control under setting [7]; 91 % of control (dose: 400.0 mg/kg/injection, schedule: Q01DX009 (ip), vehicle: Klucel (hydroxypropylcellulose) (HPC)).
Turning to `CN(C)CC1CCCCN1` (centres undefined), the T/C runs as follows: under setting [12], 100 % of control; under setting [13], 100 % of control; under setting [14], 100 % of control.
Turning to `C=C1[C@@H](O)[C@]2(O)OC[C@@]34[C@H]1[C@@H](OC(=O)C(C)CC)C(=O)O[C@@H]3C[C@H]1C(C)=CC(=O)[C@@H](O)[C@]1(C)[C@@H]24` (some centres undefined), the T/C (dose: 0.5 mg/kg/injection, schedule: Q01DX009 (ip), vehicle: saline with Tween-80) was 116 % of control and the T/C (dose: 1.0 mg/kg/injection, schedule: Q01DX009 (ip), vehicle: saline with Tween-80) was 118 % of control.
`CCCCCCCCCCCCCCCC(=O)N(C(C)CCCN(CC)CC)C(C)CCCN(CC)CC` (centres undefined): the T/C is, setting by setting: (dose: 3.13 mg/kg/injection, schedule: Q01DX009 (ip), vehicle: other) 91 % of control; (dose: 12.5 mg/kg/injection, schedule: Q01DX009 (ip), vehicle: other) 92 % of control.
